The text below walks through data of patent US6225494A, “Trisubstituted phenyl derivatives having retinoid agonist or inverse agonist type biological activity” (Allergan Sales, Inc., priority 1999, dated 2001).

As a reminder, the EC50 is the midpoint of the concentration-response curve.

Common to all, as to assay: RAR-P-GR holoreceptor transactivation assay (PGR assay)
Common to all, as to format: cell-based

In one test the target is T1, RARγ (Homo sapiens, UniProt P13631, E108G/G109S/G112V).
T1 construct: expressed in transfected cells; host or cells: CV-1
T1 sequence (P13631 1-454 E108G/G109S/G112V): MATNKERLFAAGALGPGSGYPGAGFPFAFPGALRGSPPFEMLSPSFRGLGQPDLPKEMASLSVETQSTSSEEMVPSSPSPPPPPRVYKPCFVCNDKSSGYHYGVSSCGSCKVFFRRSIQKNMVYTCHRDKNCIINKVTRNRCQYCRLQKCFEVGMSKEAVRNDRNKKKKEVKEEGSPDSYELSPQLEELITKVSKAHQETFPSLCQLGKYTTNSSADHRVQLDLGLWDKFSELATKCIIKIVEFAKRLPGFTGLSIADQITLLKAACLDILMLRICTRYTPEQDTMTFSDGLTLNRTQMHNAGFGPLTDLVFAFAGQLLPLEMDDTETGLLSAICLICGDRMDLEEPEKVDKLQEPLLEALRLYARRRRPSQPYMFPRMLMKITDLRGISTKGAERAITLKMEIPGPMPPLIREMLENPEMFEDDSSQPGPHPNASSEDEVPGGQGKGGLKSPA
T1 sequence (P19793 1-462 partner): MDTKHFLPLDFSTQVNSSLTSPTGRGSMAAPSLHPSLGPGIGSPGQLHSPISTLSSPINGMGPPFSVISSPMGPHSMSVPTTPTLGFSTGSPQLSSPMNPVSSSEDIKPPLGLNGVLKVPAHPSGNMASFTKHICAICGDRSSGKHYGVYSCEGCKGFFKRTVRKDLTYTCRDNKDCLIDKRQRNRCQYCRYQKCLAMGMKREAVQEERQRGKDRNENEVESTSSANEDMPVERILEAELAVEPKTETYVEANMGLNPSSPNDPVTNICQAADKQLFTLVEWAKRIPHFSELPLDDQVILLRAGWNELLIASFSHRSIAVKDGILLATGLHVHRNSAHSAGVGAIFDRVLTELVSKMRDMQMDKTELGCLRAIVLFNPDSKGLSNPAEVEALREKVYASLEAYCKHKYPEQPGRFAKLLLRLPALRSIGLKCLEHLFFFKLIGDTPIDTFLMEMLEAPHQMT
The settings on record: for EC50: CV-1 cells, luciferase reporter, 18 hours; for Emax: relative to all-trans-retinoic acid, read-out: % Efficiency RARγ. Here is the method:
(§1) Still another transactivation assay, the "PGR assay" is described in the publication KIein et al. J. Biol. Chem. 271, 22692-22696 (1996) which is expressly incorporated herein by reference, and a detailed description is also provided below. The results of the PGR assay are also expressed in EC50 numbers (nanomolar concentration).
(§2) RAR-P-GR Holoreceptor Transactivation Assay
(§3) CV-1 cells (4×10^5 cells/well) were transiently transfected with the luciferase reporter plasmid MTV-4(R5G)-Luc (0.7 μg/well) containing four copies of the R5G retinoid DNA response element along with the RXRα expression plasmid pRS-hRXRα (0.1 μg/well) and one of the RAR-P-GR expression plasmids (0.05 μg/well) in 12 well plates via calcium phosphate precipitation Chen et al. (1987) Mol. Cell. Biol. 7, 2745-2752, as described by Vein et al. in J. Biol. Chem. 271, 22692, referenced above. The three different RAR-P-GR expression plasmids, pRS-RARα-P-GR, pcDNA3-RARβ-P-GR and pcDNA3-RARγ-P-GR, express RARα, RARβ and RARγ receptors, respectively, which contain modified DNA binding domains such that their "P-boxes" have been altered to that of the glucocorticoid receptor. These RAR-P-GR receptors bind to DNA as heterodimeric complexes with RXR. Specifically, the RAR-P-GR receptors bind retinoic acid response elements designated R5G, comprised of two RAR half sites (nucleotide sequence 5'-GGTTCA-3') separated by 5 base pairs in which the 3'-half site has been modified to that of a glucocorticoid receptor half site, 5'-AGAACA-3'. To allow for various in transfection efficiency a β-galactosidase expression plasmid (0.01 ug/well) was used as an internal control. Alternatively, the assay was performed in a 96-well microtiter plate format (5000 cells/well) in a manner which was identical to that described above except 1/5 of the amount of the DNA-calcium phosphate precipitant (20 μl instead of 100 μl) was applied to each well. Eighteen hours after introduction of the DNA precipitants, cells were rinsed with phosphate buffered saline (PBS) and fed with D-MEM (Gibco-BRL) containing 10% activated charcoal extracted fetal bovine serum (Gemini Bio-Products). After rinsing with PBS, cells were lysed and luciferase activity was measured as previously described in de Wet et al. (1987) Mol. Cell. Biol. 7, 725-737. Luciferase values represent the mean±SEM of triplicate determinations normalized to β-galactosidase activity.

For a further test, the target named is T2, RARα (Homo sapiens, UniProt P10276, E106G/G107S/G110V).
T2 construct: expressed in transfected cells; host or cells: CV-1
T2 sequence (P10276 1-462 E106G/G107S/G110V): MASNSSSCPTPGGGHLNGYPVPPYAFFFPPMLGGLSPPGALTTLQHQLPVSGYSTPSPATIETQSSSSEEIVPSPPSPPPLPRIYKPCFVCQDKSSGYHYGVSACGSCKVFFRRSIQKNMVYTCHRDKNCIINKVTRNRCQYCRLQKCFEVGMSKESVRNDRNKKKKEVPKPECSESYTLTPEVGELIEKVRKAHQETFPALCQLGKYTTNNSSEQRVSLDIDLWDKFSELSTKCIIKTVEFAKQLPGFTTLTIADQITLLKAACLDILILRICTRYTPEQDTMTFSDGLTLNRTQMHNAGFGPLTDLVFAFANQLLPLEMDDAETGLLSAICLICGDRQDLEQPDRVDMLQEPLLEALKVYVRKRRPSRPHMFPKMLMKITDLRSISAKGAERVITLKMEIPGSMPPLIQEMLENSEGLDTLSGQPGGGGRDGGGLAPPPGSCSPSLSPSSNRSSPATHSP
T2 sequence (P19793 1-462 partner): T1 sequence (P19793 1-462 partner)
The conditions noted are these: for EC50: CV-1 cells, luciferase reporter, 18 hours; for Emax: relative to all-trans-retinoic acid, read-out: % Efficiency RARα. The procedure:
as §1, §2, §3

The target of a further test is T3, RARβ (Homo sapiens, UniProt P10826, E106G/G107S/G110V).
T3 construct: expressed in transfected cells; host or cells: CV-1
T3 sequence (P10826 1-448 isoform P10826-2 E99G/G100S/G103V): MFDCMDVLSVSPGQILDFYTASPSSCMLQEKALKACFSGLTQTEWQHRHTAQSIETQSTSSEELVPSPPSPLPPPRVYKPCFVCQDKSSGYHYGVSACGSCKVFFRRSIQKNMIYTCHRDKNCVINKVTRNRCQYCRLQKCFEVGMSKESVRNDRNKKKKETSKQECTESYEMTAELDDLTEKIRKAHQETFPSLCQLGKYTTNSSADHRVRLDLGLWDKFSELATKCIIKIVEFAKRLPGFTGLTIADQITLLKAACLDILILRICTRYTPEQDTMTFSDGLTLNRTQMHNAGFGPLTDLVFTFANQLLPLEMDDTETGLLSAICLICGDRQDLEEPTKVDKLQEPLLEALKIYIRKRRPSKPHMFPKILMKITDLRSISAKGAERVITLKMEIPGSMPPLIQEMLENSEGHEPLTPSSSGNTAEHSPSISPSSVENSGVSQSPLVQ
T3 sequence (P19793 1-462 partner): T1 sequence (P19793 1-462 partner)
The settings on record: for EC50: CV-1 cells, luciferase reporter, 18 hours; for Emax: relative to all-trans-retinoic acid, read-out: % Efficiency RARβ. The procedure: as §1, §2, §3

As for `Cc1ccc(C(=O)c2cc(C#Cc3ccc(C(=O)O)cc3)ccc2O)cc1` [Compound 5, 4-[[4'-hydroxy-3'-(4"-methyl)benzoyl]phenylethynyl]benzoic acid], the EC50 at RARγ, on RARα and at RARβ was over 10 µM each time. For the same compound, the figures for the Emax at RARγ, on RARα and at RARβ were 1%, 1% and 3%, respectively.
With `C=C(c1ccc(C)cc1)c1cc(C#Cc2ccc(C(=O)O)cc2)ccc1O` [Compound 8, 4-[[4'-Hydroxy-3'-(1-p-tolyl)vinyl]phenylethynyl]benzoic acid], the EC50 on RARγ, on RARα and on RARβ was over 10 µM throughout. Also, the Emax at RARγ was found to be 3%; on RARα, 1%; on RARβ, 3%.
On to `C=C(c1ccc(C)cc1)c1cc(C#Cc2ccc(C(=O)O)cc2)ccc1OCOC` [Compound 9, 4-[[4'-methoxymethoxy-3'-(1-p-tolyl)vinyl]phenylethynyl]benzoic acid], for which the EC50 on RARγ, at RARα and at RARβ was over 10 µM throughout. In addition, the Emax turned out to be 5% at RARγ, 1% on RARα and 3% at RARβ.
Take `C=C(c1ccc(C)cc1)c1cc(C#Cc2ccc(C(=O)O)cc2)ccc1OC` [Compound 12, 4-[[4'-Methoxy-3'-(1-p-tolyl)vinyl]phenylethynyl]benzoic acid]: the EC50 on RARγ, on RARα and on RARβ was over 10 µM each time. Further, the values for the Emax at RARγ, on RARα and on RARβ were 5%, 0% and 1%, respectively.
On to `COCOc1ccc(C#Cc2ccc(C(=O)O)cc2)cc1C(=O)c1ccc(C)cc1` [Compound 13], for which the EC50 on RARγ, at RARα and at RARβ was over 10 µM throughout. The Emax at RARγ, on RARα and at RARβ was 0% each time.
With `C=C(c1ccc(C)cc1)c1cccc(C#Cc2ccc(C(=O)O)cc2)c1` [Compound 20, 4-[[3'-(1-p-Tolyl)vinyl]phenylethynyl]benzoic acid], the EC50 at RARγ, on RARα and at RARβ was over 10 µM each time. The Emax at RARγ was 1%; at RARα it was 9%; at RARβ, 5%.
Take `COc1ccc(C#Cc2ccc(C(=O)O)cc2)cc1C(=O)c1ccc(C)cc1` [Compound 22, 4-[[4'-methoxy-3'-(4"-methyl)benzoyl]phenylethynyl]benzoic acid]: the EC50 on RARγ, on RARα and at RARβ was over 10 µM in each case. The Emax on RARγ, at RARα and at RARβ was 0% throughout.
`Cc1ccc(C(=O)c2cc(C#Cc3ccc(C(=O)O)c(F)c3)c(C)cc2O)cc1` [Compound 25, 4-[[4'-Hydroxy-2'-methyl-5'-(4"-methyl)benzoyl]phenylethynyl]-2-fluoro-benzoic acid]: the concentration for a half-maximal effect (EC50) on RARγ, on RARα and on RARβ was over 10 µM throughout. In addition, the results for the Emax at RARγ, on RARα and on RARβ were 0%, 0% and 2%, respectively.
Consider `C=C(c1ccc(C)cc1)c1cc(C#Cc2ccc(C(=O)O)cc2)ccc1OC(C)C` [Compound 28, 4-[[4'-Isopropoxy-3'-(1-p-tolyl)vinyl]phenylethynyl]benzoic acid], for which the EC50 at RARγ, at RARα and at RARβ was over 10 µM each time. Moreover, the results for the Emax at RARγ, on RARα and at RARβ were 1%, 0% and 0%, respectively.
Take `C=C(c1ccc(C)cc1)c1cc(C#Cc2ccc(C(=O)O)c(F)c2)ccc1OC(C)C` [Compound 29, 4-[[4'-Isopropoxy-3'-(1-p-tolyl)vinyl]phenylethynyl]-2-fluoro-benzoic acid]: the 50% effective concentration (EC50) on RARγ, at RARα and on RARβ was over 10 µM in each case. For the same compound, the Emax on RARγ turned out to be 1%; at RARα, 0%; on RARβ, 0%.
Regarding `C=C(c1cccc(C)c1)c1cc(C#Cc2ccc(C(=O)O)cc2)ccc1OC(C)C` [Compound 31, 4-[[4'-Isopropoxy-3'-(1-m-tolyl)vinyl]phenylethynyl]benzoic acid], the concentration giving a half-maximal response (EC50) on RARγ, at RARα and at RARβ was over 10 µM each time. The Emax was 2% at RARγ, 0% on RARα and 4% at RARβ.
